Assay results published in patent publication US9340596B2, “Fusion protein comprising tumor necrosis factor related apoptosis inducing ligand and integrin ligand and use thereof” (NANJING UNIVERSITY, priority 2007, dated 2016).

Tests used:
[1] = system: COLO-205 colon cancer cells; assay: Anti-tumor efficacy on COLO-205 colon cancer model; type: in vivo, nude mice
Protocol: (§1) 5-6 week-old female nude mice were purchased from Shanghai Experimental Animal Center. The nude mice were injected through their tail veins with 100 μg of a specific antibody, i.e., purified Asialo GM-1 antibody (Wako Chemicals Inc., Japan) that blocks natural killer cells. After 24 hours, the upper right sides of the back of the nude mice were inoculated subcutaneously with 100,000 COLO-205 or HT-29 colon cancer cells. When the tumors reached 70 mm3, random grouping and treatment began. The recombinant TRAIL and its variant proteins were administered intraperitoneally, once daily for 10-14 days. The water-soluble camptothecin CPT-11 (11-hydroxy-camptothecin; Product Name: Irinotecan Hydrochloride Injection; Pharmacia/Upjohn Company's product) was administered intravenously once a week, two times in total. The recombinant proteins and camptothecin were diluted with a phosphate buffer. The tumor size was measured with a caliper, and the calculation formula was: […].
Two kinds of colon cancer models, COLO-205 and HT-29, were used to test the anti-tumor activity of the TRAIL variant in the athymic nude mice. Because COLO-205 colon cancer cells were sensitive to TRAIL, the therapeutic effect of separate use of TRAIL and TRAIL variant was assessed on this model. On the 8th day after the nude mice were inoculated with tumor cells, administration of drugs through the tail vein began for ten days in succession. The mice were divided into four groups; 100 μg TRAIL variant group, 20 μg TRAIL variant group, 100 μg wild-type TRAIL group, and PBS control group. […] Moreover, the TRAIL variant's inhibition of tumor growth was dose-dependent.
The invention also provides the anti-tumor effect of combined use of TRAIL variant and chemotherapeutic drug CPT-11. Protein injection was carried out by intraperitoneal injection once a day for TRAIL or TRAIL variant, for two weeks total, and intravenous injection once every two days from CPT-11 via tail veins, seven times in total. […] This effect was even better than the higher dose of the TRAIL+CPT-11 combined treatment group ([…]) (89%, P=0.001, 36 days).

[2] = system: human foreskin microvascular endothelial cells; assay: Cell adhesion assay of human foreskin microvascular endothelial cells on protein-coated wells; type: cell-based
Protocol: The TRAIL and its variant protein are coated on a 96-well PVC plate overnight at 4° C. The coated 96-well plate was rinsed with 0.9% physiological saline, and then blocked for 1 h at 1640 culture medium containing 2% bovine serum albumin, and then rinsed again. After the human foreskin microvascular endothelial cells were digested, washed three times with phosphate buffer and re-suspended into the complete RPMI1640 medium, it was then added to the 96-well plate coated with TRAIL and its variant (40,000 cell per well). After the cells were incubated for 1.5 hours in an incubator containing 5% carbon dioxide, they were washed three times with physiological saline to remove the non-adherent cells. The adherent cells were fixed for 30 min with phosphate buffer solution (pH 7.3) containing 4% formalin and 2% sucrose, and then stained with 0.5% crystal violet. The fixed stained cells were rinsed several times, then dissolved with […] DMSO to test the absorbance values at 540 nm. All the tests should be carried out at least three times independently.

[3] = system: HT-29 colon cancer cells; assay: Anti-tumor efficacy on HT-29 colon cancer model; type: in vivo, nude mice; settings: TRAIL-insensitive HT-29 model
Protocol: as §1
The invention also provides the anti-tumor effect of combined use of TRAIL variant and chemotherapeutic drug CPT-11. Protein injection was carried out by intraperitoneal injection once a day for TRAIL or TRAIL variant, for two weeks total, and intravenous injection once every two days from CPT-11 via tail veins, seven times in total. […]

[4] = system: normal human foreskin microvascular endothelial cells; assay: Cell toxicity on normal endothelial cells; type: cell-based; settings: 300 ng/ml, 24 hours
Protocol: (§2) Different from the tumor cells, the normal human foreskin microvascular endothelial cells, 293T kidney cells and primary liver cells were treated with 300 ng/ml of the TRAIL variants or TRAIL for 24 hours.

[5] = system: Caspase-8−/− deficient Jurkat cells; assay: Apoptosis induction in Caspase-8-/- deficient Jurkat cells
From the text: (§4) The fluorescence detection method was used to test the activity of Caspase-8 and Caspase-3 in the Jurkat cells after treatment of TRAIL and TRAIL variants.

[6] = system: COLO-205 tumor tissues; assay: Drug distribution test of 125I-labeled recombinant proteins in tumor tissues; type: in vivo; settings: COLO-205 tumor-bearing nude mice, 240 minutes after injection
Protocol: Separate injection from tail veins of 100 μl containing […] of 125I-labeled human TRAIL or its variant protein into the COLO-205 tumor bearing nude mice. 5, 30, 60, 120 and 240 minutes after injection, the tumor tissues were peeled off separately and weighed, and the radiation amount of the tumor tissues were measured with a liquid scintillation counter. The amount of radiation in the tumor tissues is represented by the percentage of measuring radiation quantity per gram of tissues and the injected radiation quantity (% ID/g). The results are the average value of three independent tests.
The recombinant TRAIL and the TRAIL variant protein were labeled with a radioisotope of iodine (^125I) using a labeling kit (Pierce Corp.). The labeling results were as follows: the specific activity of ^125I-TRAIL was 7.86 μCi/μg protein, and the specific activity of ^125I-TRAIL variant was 7.49 μCi/μg protein. After the nude mice were inoculated with COLO-205 colon cancer, and when the tumor size reached 400-500 mm3, they were randomly grouped into wild-type and variant group. Each group included five time points: 5 min, 30 min, 60 min, 120 min and 240 min, and each time point included three animals. […] At each time point, the mice were sacrificed, the tumors were dissected by surgery, and the radiation dose was measured through a liquid scintillation counter. […]

[7] = system: MDA-MB-231 breast cancer cells; assay: Cell apoptosis, Annexin V and PI double staining, MDA-MB-231; type: cell-based
Protocol: (§3) After the cells treated with TRAIL and its variant were digested with trypsin, they were removed from the cultivation plate, washed twice with phosphate buffer solution, and centrifuged for 5 min at 300 g centrifugal force. The supernatants were removed, and the cells were re-suspended in 100 ul of binding buffer solution. Then, Annexin V-FITC (BD Pharmgen) was added until a final concentration of 2 μg/ml was achieved, followed by incubation at room temperature. After 10 min, 400 ul of binding buffer was added, and the cells were transferred to a flow analysis tube. 1 μg of […] (Sigma Corporation) was added to each tube. The cells were analyzed with a flow cytometer within 30 min. At least three separate tests should be carried out for each cell line.

[8] = system: FADD−/− deficient Jurkat cells; assay: Apoptosis induction in FADD-/- deficient Jurkat cells
From the text: as §4

[9] = system: COLO-205 colon cancer cells; assay: Cell apoptosis, Annexin V and PI double staining, COLO-205; type: cell-based
Protocol: as §3

[10] = system: Jurkat T lymphoma cells; assay: Cell apoptosis, Annexin V and PI double staining, Jurkat; type: cell-based
Protocol: as §3

[11] = system: primary liver cells; assay: Cell toxicity on primary liver cells; type: cell-based; settings: 300 ng/ml, 24 hours
Protocol: as §2

[12] = system: human foreskin microvascular endothelial cells; assay: Binding assay of fluorescein-labeled TRAIL and its variant with endothelial cells (flow cytometer); settings: fluorescein-labeled protein, flow cytometry
Protocol: The TRAIL and its variant were labeled with fluorescein (Sigma company), and the labeled proteins were separated from free fluorescein through a Sephadex-G25 size exclusion column. After human foreskin microvascular endothelial cells were digested by trypsin, washed twice with ice-cold phosphate buffer containing 2% fetal calf serum, and then re-suspended, they were added with 1 μg of labeled protein for incubation for 1 h at 4° C. The fluorescent-labeled bovine serum albumin was used as a control of the test. After being washed three times, the binding capacity of the stained cells was analyzed with a flow cytometer (Becton Dickinson Company).

[13] = system: 293T kidney cells; assay: Cell toxicity on 293T kidney cells; type: cell-based; settings: 300 ng/ml, 24 hours
Protocol: as §2

| Compound | tumor growth inhibition (in words) ([1]; COLO-205, individual injection of low dose CPT-11 (6.25 mg/kg/each), vs PBS control) | reduction by free protein of endothelial cells adhered to microplates coated with RGD-L-TRAIL (competitive test) ([2]; free protein added to plates coated with TRAIL variant protein) | adhesion of human foreskin microvascular endothelial cells to culture plate wells coated with the protein ([2]; protein coated on 96-well plate, cells incubated 1.5 hours) | dose required, relative to TRAIL variant [3] | cell toxicity [4] | induction of cell apoptosis [5] | distribution in the tumor tissues [6] | medial lethal dose [7] | induction of cell apoptosis [8] | medial lethal dose ([9]; COLO-205) | apoptosis rate ([9]; COLO-205 cells, 2.43 ng/ml) | tumor inhibition rate ([1]; COLO-205, 90 μg/day/each combined with CPT-11 6.25 mg/kg/each, 36 days) | tumor inhibition rate ([1]; COLO-205, 100 μg, used alone, ten days in succession, 37th day, vs PBS control) | mice whose tumors disappeared, among ten animals ([1]; COLO-205, 270 μg/day/each + CPT-11 combined treatment) | tumor inhibition effect ([1]; COLO-205, 270 μg/day/each combined with CPT-11 6.25 mg/kg/each, 36 days) | dose required for the same therapeutic effect, relative to TRAIL variant ([1]; COLO-205 models, combined treatment program with CPT-11) | medial lethal dose [10] | cell toxicity [11] | binding capacity with human foreskin microvascular endothelial cells [12] | cell toxicity [13] |
| --- | --- | --- | --- | --- | --- | --- | --- | --- | --- | --- | --- | --- | --- | --- | --- | --- | --- | --- | --- | --- |
| CCc1c2c(nc3ccc(OC(=O)N4CCC(N5CCCCC5)CC4)cc13)-c1cc3c(c(=O)n1C2)COC(=O)[C@]3(O)CC [CPT-11, reference compound] | slightly inhibit the tumor growth | – | – | – | – | – | – | – | – | – | – | – | – | – | – | – | – | – | – | – |
| TRAIL: recombinant wild-type human tumor necrosis factor-related apoptosis-inducing ligand, comparator | – | has no such ability | do not adhere | at least 2 times | No obvious cell toxicity | no induced cell apoptosis | difficult to detect | 2.3 ng/mL | no induced cell apoptosis | 3.5 ng/mL | 43.7% | 67.8% | 37% | 6 mice | 89% | 3-9 times | 6.7 ng/mL | No obvious cell toxicity | very weak | No obvious cell toxicity |
